Results published in US11298333B1, “Methods of reducing the risk of cardiovascular events in a subject” (Amarin Pharmaceuticals Ireland Limited, priority 2018, dated 2022).

Test system: TG, non-HDL-C, LDL-C, HDL-C, apo B, hsCRP
Test: REDUCE-IT: fasting lipid, lipoprotein and inflammatory biomarkers over time
Assay type: in vivo, human
Conditions: Year 2; ITT
Description: Fasting Lipid Profile: The fasting lipid panel included: TG, TC, LDL-C, HDL-C, non-HDL-C, and VLDL-C. At all visits, LDL-C was calculated using the Friedewald equation. At Visit 1 and Visit 1.1 direct LDL-C were used if at the same visit TG >400 mg/dL (4.52 mmol/L). These LDL-C values were used for the evaluation of the LDL-C inclusion criterion (LDL-C qualifying measurements for randomization) and for the assessment of changes in the statin therapy when LDL-C was not at goal. […] In addition, irrespective of the TG levels, at Visit 2 (0 Months of Follow-up, baseline) and at Visit 4 (12 Months of Follow-up), LDL-C were measured by preparative ultracentrifugation. […] Hopkins LDL-C was calculated for each visit. […]
The fasting lipid panel was tested at Screening (Visit 1 or Visit 1.1), Randomization visit (Visit 2; Day 0), Visit 3 (Day 120; ˜4 Months) and all other follow-up visits including the last visit. For change from baseline to 1 year preparative ultracentrifugation measurements for LDL-C were analyzed, unless this value was missing. […] In addition, change from baseline to day 120 in LDL-C utilizing Friedewald's and Hopkins methods was analyzed, using the arithmetic mean of LDL-C obtained at Visit 2 (Day 0) and the preceding Visit 1 (or Visit 1.1). […] LDL-C according to Hopkins was calculated at each visit. […]

For `CC/C=C\C/C=C\C/C=C\C/C=C\C/C=C\CCCC(=O)OCC` [Icosapent Ethyl, eicosapentaenoic acid ethyl ester], the “Triglycerides median absolute change from baseline” value was 85 mg/dL.
